This experiment has as its target DEN MTase (Dengue virus type 2, UniProt P29990). Description: GTP-Bodipy displacement. Format: binding. The settings on record: for Fold Affinity Reduction: Ki relative to GTP.
The mark [1] stands for this setting: 10 nM GTP-Bodipy, 500 nM DEN MTase.

Read-outs that look alike come from different tables or passages of the source.

These results are taken from article PMC2680092 (Journal of molecular biology, 2008).

Chain of DEN MTase (P29990 2493-2755 limits assumed): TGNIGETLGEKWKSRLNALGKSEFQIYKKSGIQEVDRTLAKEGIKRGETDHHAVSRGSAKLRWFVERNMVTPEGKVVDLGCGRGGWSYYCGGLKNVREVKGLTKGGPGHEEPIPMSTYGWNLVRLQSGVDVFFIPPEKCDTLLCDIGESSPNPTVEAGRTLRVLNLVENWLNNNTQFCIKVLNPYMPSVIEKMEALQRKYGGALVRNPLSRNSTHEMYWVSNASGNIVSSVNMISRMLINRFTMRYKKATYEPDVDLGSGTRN

As to `Nc1nc2c(ncn2[C@@H]2O[C@H](COP(=O)(O)OP(=O)(O)OP(=O)(O)O)[C@@H](O)[C@H]2O)c(=O)[nH]1` [GTP, guanosine triphosphate], affinity was put at a Ki of 40 nM and the “Fold Affinity Reduction” value was determined as 0.

As to `Cn1c[n+]([C@@H]2O[C@H](COP(=O)(O)OP(=O)(O)OP(=O)(O)OC[C@H]3O[C@@H](n4cnc5c(=O)[nH]c(N)nc54)[C@H](O)[C@@H]3O)[C@@H](O)[C@H]2O)c2nc(N)[nH]c(=O)c21` [^7meGpppG], under setting [1], the Ki was 100 nM.

As to `Cn1c[n+]([C@@H]2O[C@H](COP(=O)(O)OP(=O)(O)OP(=O)(O)OC[C@H]3O[C@@H](n4cnc5c(N)ncnc54)[C@H](O)[C@@H]3O)[C@@H](O)[C@H]2O)c2nc(N)[nH]c(=O)c21` [^7meGpppA], under setting [1], the Ki is 170 nM.

Regarding `Nc1nc2c(ncn2[C@H]2C[C@H](O)[C@@H](COP(=O)(O)OP(=O)(O)OP(=O)(O)O)O2)c(=O)[nH]1` [dGTP], the “Fold Affinity Reduction” value is 15. Under setting [1], this molecule gave a Ki of 610 nM.

For the molecule `Nc1nc2c(ncn2[C@@H]2O[C@H](CO)[C@@H](O)[C@H]2O)c(=O)[nH]1` [Guanosine, guanosine], the Ki came out at 260000 nM and the “Fold Affinity Reduction” value is reported as 6400.

Take `O=c1[nH]c(=O)c2ncn([C@@H]3O[C@H](COP(=O)(O)OP(=O)(O)OP(=O)(O)O)[C@@H](O)[C@H]3O)c2[nH]1` [XTP, xanthine triphosphate]: the “Fold Affinity Reduction” value is given as 12. This molecule also came in with a Ki under setting [1] of 480 nM.

For the molecule `Nc1nc2c(ncn2[C@@H]2O[C@H](COP(=O)(O)OP(=O)(O)O)[C@@H](O)[C@H]2O)c(=O)[nH]1` [GDP], the “Fold Affinity Reduction” value was found to be 3. This molecule gave a Ki under setting [1] of 100 nM.

Consider `Nc1ncnc2c1ncn2[C@@H]1O[C@H](COP(=O)(O)OP(=O)(O)OP(=O)(O)O)[C@@H](O)[C@H]1O` [ATP, Adenosine triphosphate], for which the affinity corresponds to a Ki of 350000 nM and the “Fold Affinity Reduction” value was 8750.

For `Nc1nc2c(ncn2[C@H]2CC[C@@H](COP(=O)(O)OP(=O)(O)OP(=O)(O)O)O2)c(=O)[nH]1` [ddGTP], the “Fold Affinity Reduction” value is 19. Further, the inhibitory constant (Ki) under setting [1] stood at 770 nM.

For `CSc1nc(N)nc2c1ncn2C1OC(COP(=O)(O)OP(=O)(O)OP(=O)(O)O)C(O)C1O` (centres unmarked) [6-methylthio GTP, 6-methylthio-GTP], the inhibitory constant (Ki) under setting [1] amounted to 230 nM.

`Nc1nc2c(ncn2[C@@H]2O[C@H](COP(=O)(O)O)[C@@H](O)[C@H]2O)c(=O)[nH]1` [GMP]: the Ki under setting [1] was 950 nM.

Turning to `O=c1[nH]cnc2c1ncn2[C@@H]1O[C@H](COP(=O)(O)OP(=O)(O)OP(=O)(O)O)[C@@H](O)[C@H]1O` [ITP, Inosine triphosphate], the “Fold Affinity Reduction” value was 3. The molecule further registered a Ki under setting [1] of 120 nM.
